Data set [1] relates to H. influenzae 30063. Briefly: MIC by agar dilution, H. influenzae 30063. Type of data set: cell-based. To be noted: Haemophilus influenzae, Mueller Hinton agar, overnight at 35° C. The source says: (§1) The in vitro activity of compounds of the subject invention may be assessed by standard testing procedures such as the determination of minimum inhibitory concentration (MIC) by agar dilution as described in “Approved Standard. Methods for Dilution Antimicrobial Susceptibility Tests for Bacteria that Grow Aerobically,” 3rd ed., published 1993 by the National Committee for Clinical Laboratory standards, Villanova, Pa., USA. The in vitro MICs of test compounds may be determined by a standard agar dilution method. A stock drug solution of each analog is prepared in a preferred solvent, usually DMSO:H2O (1:3). Serial 2-fold dilutions of each sample are made using 1.0 ml aliquots of sterile distilled water. To each 1.0 ml aliquot of drug is added 9 ml of molten Mueller Hinton agar medium. The drug-supplemented agar is mixed, poured into 15×100 mm petri dishes, and allowed to solidify and dry prior to inoculation. Vials of each of the test microorganisms are maintained frozen in the vapor phase of a liquid nitrogen freezer. Test cultures are grown overnight at 35° C. on the medium appropriate for the microorganism. Colonies are harvested with a sterile swab, and cell suspensions are prepared in Trypticase Soy broth (TSB) to equal the turbidity of a 0.5 McFarland standard. A 1:20 dilution of each suspension is made in TSB. The plates containing the drug supplemented agar are inoculated with a 0.001 ml drop of the cell suspension using a Steers replicator, yielding approximately 10^4 to 10^5 cells per spot. The plates are incubated overnight at 35° C. Following incubation the Minimum Inhibitory Concentration (MIC μg/ml), the lowest concentration of drug that inhibits visible growth of the microorganism, is read and recorded.

Data set [2] concerns S. aureus UC9213. In words: MIC by agar dilution, S. aureus UC9213. Type of data set: cell-based. Particulars: Staphylococcus aureus, Mueller Hinton agar, overnight at 35° C.
Excerpt: as §1

Data set [3] concerns S. pneumoniae UC9912. In words: MIC by agar dilution, S. pneumoniae UC9912. To be noted: Streptococcus pneumoniae, Mueller Hinton agar, overnight at 35° C. Type of data set: cell-based.
Excerpt: as §1
(In agar dilution the substance is mixed into plates at graded concentrations.)

SMILES strings stand for the structures. Converted amounts (≈) assume the structure as drawn.

The values that follow come from patent publication US6828317B2, “Antimicrobial thiadiazinone derivatives and their application for treatment of bacterial infections” (Pharmacia & Upjohn Company, priority 2002, dated 2004).

A word on the melting point: it is the temperature, or range, at which the solid turns liquid. In turn, `CC(=O)NC[C@H]1CN(c2ccc(C3=NNC(=O)C(F)S3)c(F)c2)C(=O)O1` (stereo partly drawn) [Example 10, N-{3-[3-Fluoro-4-(6-fluoro-5-oxo-5,6-dihydro-4H-[1,3,4]thiadiazin-2-yl)-phenyl]-2-oxo-oxazolidin-5(S)-ylmethyl}-acetamide] returned a melting point of 218 to 220 °C.
For the compound `CCC(=O)NC[C@H]1CN(c2ccc(C3=NNC(=O)CS3)c(F)c2)C(=O)O1` [Example 15, N-{3-[3-Fluoro-4-(5-oxo-5,6-dihydro-4H-[1,3,4]thiadiazin-2-yl)-phenyl]-2-oxo-oxazolidin-5(S)-ylmethyl}-propionamide], the melting point lay within 192 to 193 °C. Moreover, the MIC in data set [1] stood at 2 µg/mL (≈ 5.26 µM). This compound also registered an MIC in data set [2] of 1 µg/mL (≈ 2.63 µM). Also, the MIC in data set [3] is < 0.06 µg/mL.
Taken in the same sequence, the figures for `CC(=O)NC[C@H]1CN(c2ccc(C3=NNC(=O)C(c4ccccc4)S3)c(F)c2)C(=O)O1` (stereo partly drawn) [Example 9, N-{3-[3-Fluoro-4-(5-oxo-6-phenyl-5,6-dihydro-4H-[1,3,4]thiadiazin-2-yl)-phenyl]-2-oxo-oxazolidin-5(S)-ylmethyl}-acetamide] were 122 to 123 °C, 16 µg/mL (≈ 36.2 µM), 4 µg/mL (≈ 9.04 µM) and 0.5 µg/mL (≈ 1.13 µM).
On to `COC(=O)NC[C@H]1CN(c2ccc(C3=NNC(=O)CS3)c(F)c2)C(=O)O1` [Example 19], for which the MIC in data set [1] came out at 4 µg/mL (≈ 10.5 µM); in data set [2], 1 µg/mL (≈ 2.62 µM); in data set [3], 0.125 µg/mL (≈ 0.327 µM).
In the same order, the values of `CO/N=C/c1ccc(/C=C/C(=O)NC[C@H]2CN(c3ccc(C4=NNC(=O)CS4)c(F)c3)C(=O)O2)cc1` [Example 24, N-{3-[3-Fluoro-4-(5-oxo-5,6-dihydro-4H-[1,3,4]thiadiazin-2-yl)-phenyl]-2-oxo-oxazolidin-5(S)-ylmethyl}-3-[4-(methoxyimino-methyl)-phenyl]-acrylamide] are > 64 µg/mL, 1 µg/mL (≈ 1.95 µM) and 0.06 µg/mL (≈ 0.117 µM).
In turn, `CC(=O)CC(=O)NC[C@H]1CN(c2ccc(C3=NNC(=O)CS3)c(F)c2)C(=O)O1` [Example 21, N-{3-[3-Fluoro-4-(5-oxo-5,6-dihydro-4H-[1,3,4]thiadiazin-2-yl)-phenyl]-2-oxo-oxazolidin-5(S)-ylmethyl}-3-oxo-butyramide] showed a melting point of 176 to 178 °C. In addition, the MIC in data set [1] came out at 8 µg/mL (≈ 19.6 µM). For the same compound, the MIC in data set [2] worked out at 4 µg/mL (≈ 9.79 µM). The compound also came in with an MIC in data set [3] of 0.5 µg/mL (≈ 1.22 µM).
In the same order, the values of `CCC1SC(c2ccc(N3C[C@H](CNC(C)=O)OC3=O)cc2F)=NNC1=O` (stereo partly drawn) [Example 5, N-{3-[3-Fluoro-4-(6-ethyl-5-oxo-5,6-dihydro-4H-[1,3,4]thiadiazin-2-yl)-phenyl]-2-oxo-oxazolidin-5(S)-ylmethyl}-acetamide] are 177 to 179 °C, 32 µg/mL (≈ 81.1 µM), 4 µg/mL (≈ 10.1 µM) and 2 µg/mL (≈ 5.07 µM).
In the same order, the values of `CC(C)(C)OC(=O)NC[C@H]1CN(c2ccc(C3=NNC(=O)CS3)c(F)c2)C(=O)O1` [Example 20, N-{3-[3-Fluoro-4-(5-oxo-5,6-dihydro-4H-[1,3,4]thiadiazin-2-yl)-phenyl]-2-oxo-oxazolidin-5(S)-ylmethyl}-carbamic acid tert-butyl ester] are 167 to 168 °C, 64 µg/mL (≈ 151 µM), 2 µg/mL (≈ 4.71 µM) and 2 µg/mL (≈ 4.71 µM).
Turning to `CC(C)(C)OC(=O)NC[C@H]1CN(c2ccc(C3=NNC(=S)CS3)c(F)c2)C(=O)O1` [Example 28, N-{3-[3-Fluoro-4-(5-thioxo-5,6-dihydro-4H-[1,3,4]thiadiazin-2-yl)-phenyl]-2-oxo-oxazolidin-5(S)-ylmethyl}-carbamic acid tert-butyl ester], the melting point lay within 134 to 136 °C.
Compound `O=C(/C=C/c1ccc(/C=N/O)cc1)NC[C@H]1CN(c2ccc(C3=NNC(=O)CS3)c(F)c2)C(=O)O1` [Example 23, N-{3-[3-Fluoro-4-(5-oxo-5,6-dihydro-4H-[1,3,4]thiadiazin-2-yl)-phenyl]-2-oxo-oxazolidin-5(S)-ylmethyl}-3-[4-(hydroxyimino-methyl)-phenyl]-acrylamide] displayed a melting point of 144 to 145 °C. For the same compound, the MIC in data set [1] is 8 µg/mL (≈ 16.1 µM). The compound also gave an MIC in data set [2] of 1 µg/mL (≈ 2.01 µM). The compound also gave an MIC in data set [3] of 0.25 µg/mL (≈ 0.503 µM).
Taken in the same sequence, the figures for `CC(=S)NC[C@H]1CN(c2ccc(C3=NNC(=O)CS3)c(F)c2)C(=O)O1` [Example 25, N-{3-[3-Fluoro-4-(5-oxo-5,6-dihydro-4H-[1,3,4]thiadiazin-2-yl)-phenyl]-2-oxo-oxazolidin-5(S)-ylmethyl}-thioacetamide] were 182 to 183 °C, 0.5 µg/mL (≈ 1.31 µM), 0.125 µg/mL (≈ 0.327 µM) and < 0.06 µg/mL.
As for `CC(=O)NC[C@H]1CN(c2ccc(C3=NNC(=O)[C@H](C)S3)c(F)c2)C(=O)O1` [Example 2, N-{3-[3-Fluoro-4-(6(S)-methyl-5-oxo-5,6-dihydro-4H-[1,3,4]thiadiazin-2-yl)-phenyl]-2-oxo-oxazolidin-5(S)-ylmethyl}-acetamide], the melting point was 200 to 202 °C. Also, in data set [1], the MIC was 4 µg/mL (≈ 10.5 µM). The MIC in data set [2] was determined as 1 µg/mL (≈ 2.63 µM). Also, in data set [3], the MIC is 0.25 µg/mL (≈ 0.657 µM).
Taken in the same sequence, the figures for `CC(=S)NC[C@H]1CN(c2ccc(C3=NNC(=S)CS3)c(F)c2)C(=O)O1` [Example 26, N-{3-[3-Fluoro-4-(5-thioxo-5,6-dihydro-4H-[1,3,4]thiadiazin-2-yl)-phenyl]-2-oxo-oxazolidin-5(S)-ylmethyl}-thioacetamide] were 158 to 161 °C, 1 µg/mL (≈ 2.51 µM), 0.25 µg/mL (≈ 0.627 µM) and < 0.06 µg/mL.
`COC(=O)CN1N=C(c2ccc(N3C[C@H](CNC(C)=O)OC3=O)cc2F)SCC1=O` [Example 33] yielded a melting point of 157 to 158 °C.
`CC(=O)NC[C@H]1CN(c2ccc(C3=NNC(=O)CS3)c(F)c2)C(=O)O1` [Example 1, N-{3-[3-Fluoro-4-(5-oxo-5,6-dihydro-4H-[1,3,4]thiadiazin-2-yl)-phenyl]-2-oxo-oxazolidin-5(S)-ylmethyl}-acetamide] displayed a melting point of 206 to 209 °C. Besides, in data set [1], the MIC stood at 1 µg/mL (≈ 2.73 µM). Also, the MIC in data set [2] is 0.5 µg/mL (≈ 1.36 µM). Also, in data set [3], the MIC was < 0.06 µg/mL.
In the same order, the values of `O=C(CC(=O)c1ccc(F)cc1)NC[C@H]1CN(c2ccc(C3=NNC(=O)CS3)c(F)c2)C(=O)O1` [Example 22, N-{3-[3-Fluoro-4-(5-oxo-5,6-dihydro-4H-[1,3,4]thiadiazin-2-yl)-phenyl]-2-oxo-oxazolidin-5(S)-ylmethyl}-3-(4-fluorophenyl)-3-oxo-propionamide] are 184 to 187 °C, 16 µg/mL (≈ 32.8 µM), 4 µg/mL (≈ 8.19 µM) and 1 µg/mL (≈ 2.05 µM).
In the same order, the values of `O=C1CSC(c2ccc(N3C[C@H](CO)OC3=O)cc2F)=NN1` [Example 34] are 224 to 227 °C, 1 µg/mL (≈ 3.07 µM), 0.125 µg/mL (≈ 0.384 µM) and 0.25 µg/mL (≈ 0.768 µM).
Compound `CC(=O)NC[C@H]1CN(c2ccc(C3=NNC(=O)C(OC(C)=O)S3)c(F)c2)C(=O)O1` (stereo partly drawn) [Example 31, Acetic acid 2-{4-[5(S)-(acetylaminomethyl)-2-oxo-oxazolidin-3-yl]-2-fluorophenyl}-5-oxo-5,6-dihydro-4H-[1,3,4]thiadiazin-6-yl ester] gave a melting point of 174 to 177 °C.
Compound `O=C(CO)NC[C@H]1CN(c2ccc(C3=NNC(=O)CS3)c(F)c2)C(=O)O1` [Example 17, N-{3-[3-Fluoro-4-(5-oxo-5,6-dihydro-4H-[1,3,4]thiadiazin-2-yl)-phenyl]-2-oxo-oxazolidin-5(S)-ylmethyl}-2-hydroxyacetamide] yielded a melting point of 157 to 158 °C. This compound yielded an MIC in data set [1] of 4 µg/mL (≈ 10.5 µM). For the same compound, in data set [2], the MIC was determined as 2 µg/mL (≈ 5.23 µM). In data set [3], this compound registered an MIC of 0.125 µg/mL (≈ 0.327 µM).
Taken in the same sequence, the figures for `CC(=O)NC[C@H]1CN(c2ccc(C3=NNC(=O)C4(CCC4)S3)c(F)c2)C(=O)O1` [Example 8, N-{3-[3-Fluoro-4-(9-oxo-5-thia-7,8-diazaspiro[3.5]non-6-en-6-yl)-phenyl]-2-oxo-oxazolidin-5(S)-ylmethyl}-acetamide] were 214 to 215 °C, 32 µg/mL (≈ 78.7 µM), 2 µg/mL (≈ 4.92 µM) and 0.5 µg/mL (≈ 1.23 µM).
Taken in the same sequence, the figures for `CC(=O)NC[C@H]1CN(c2ccc(C3=NN(C)C(=O)CS3)c(F)c2)C(=O)O1` [Example 32, N-{3-[3-Fluoro-4-(4-methyl-5-oxo-5,6-dihydro-[1,3,4]thiadiazin-2-yl)-phenyl]-2-oxo-oxazolidin-5(S)-ylmethyl}-acetamide] were 179 to 180 °C, 16 µg/mL (≈ 42.1 µM), 2 µg/mL (≈ 5.26 µM) and 0.5 µg/mL (≈ 1.31 µM).
On to `CC(=O)NC[C@H]1CN(c2ccc(C3=NNC(=O)C(C(C)C)S3)c(F)c2)C(=O)O1` (stereo partly drawn) [Example 7, N-{3-[3-Fluoro-4-(6-isopropyl-5-oxo-5,6-dihydro-4H-[1,3,4]thiadiazin-2-yl)-phenyl]-2-oxo-oxazolidin-5(S)-ylmethyl}-acetamide], for which the melting point was in the range of 201 to 203 °C.
